Data on 66 molecules can be found in ChEMBL document CHEMBL3044862, “Quantitative Structure-Activity Relationships of Fluazinam and Related Fungicidal N-Phenylpyridinamines” (1995).

≈ marks a conversion by molar mass, not a printed value. Some results are limits rather than exact numbers.

This test has as its system Botrytis cinerea. In words: Fungicidal activity against Botryotinia fuckeliana inoculated on compound pre-treated one-leaf stage cucumber seedlings assessed as prevention of leaf lesions measured 3 days after inoculation. The format is functional.
Consider `Oc1c(Cl)cc(Nc2ncc(C(F)(F)F)cc2Cl)cc1Cl`, for which the MIC is above 500 µg/mL.

For `N#CSc1c(C(F)(F)F)cc([N+](=O)[O-])c(Nc2ncc(C(F)(F)F)cc2Cl)c1[N+](=O)[O-]`, the MIC is above 500 µg/mL.

On to `C[S+]([O-])c1c(C(F)(F)F)cc([N+](=O)[O-])c(Nc2ncc(C(F)(F)F)cc2Cl)c1[N+](=O)[O-]` (stereo unspecified), for which the MIC is above 500 µg/mL.

As to `CCOc1c(C(F)(F)F)cc([N+](=O)[O-])c(Nc2ncc(C(F)(F)F)cc2Cl)c1[N+](=O)[O-]`, the MIC was above 500 µg/mL.

Turning to `CCCOc1c(C(F)(F)F)cc([N+](=O)[O-])c(Nc2ncc(C(F)(F)F)cc2Cl)c1[N+](=O)[O-]`, the MIC was above 500 µg/mL.

On to `CCCCOc1c(C(F)(F)F)cc([N+](=O)[O-])c(Nc2ncc(C(F)(F)F)cc2Cl)c1[N+](=O)[O-]`, for which the MIC is above 500 µg/mL.

Consider `CC(C)Oc1c(C(F)(F)F)cc([N+](=O)[O-])c(Nc2ncc(C(F)(F)F)cc2Cl)c1[N+](=O)[O-]`, for which the MIC was above 500 µg/mL.

For the molecule `CC(C)COc1c(C(F)(F)F)cc([N+](=O)[O-])c(Nc2ncc(C(F)(F)F)cc2Cl)c1[N+](=O)[O-]`, the minimum inhibitory concentration (MIC) is above 500 µg/mL.

As to `O=[N+]([O-])c1cc(C(F)(F)F)c(OCC(F)(F)C(F)F)c([N+](=O)[O-])c1Nc1ncc(C(F)(F)F)cc1Cl`, the MIC was above 500 µg/mL.

Take `O=[N+]([O-])c1cc(C(F)(F)F)c(OCC(F)(F)F)c([N+](=O)[O-])c1Nc1ncc(C(F)(F)F)cc1Cl`: the MIC is above 500 µg/mL.

Regarding `O=[N+]([O-])c1cc(C(F)(F)F)c(OCCCl)c([N+](=O)[O-])c1Nc1ncc(C(F)(F)F)cc1Cl`, the MIC is above 500 µg/mL.

For the molecule `O=[N+]([O-])c1cc(C(F)(F)F)c(Oc2ccccc2C(F)(F)F)c([N+](=O)[O-])c1Nc1ncc(C(F)(F)F)cc1Cl`, the MIC is above 500 µg/mL.

Consider `O=[N+]([O-])c1cc(C(F)(F)F)c(Oc2cccc(C(F)(F)F)c2)c([N+](=O)[O-])c1Nc1ncc(C(F)(F)F)cc1Cl`, for which the MIC is above 500 µg/mL.

As for `O=[N+]([O-])c1cc(C(F)(F)F)c(Oc2ccc(C(F)(F)F)cc2)c([N+](=O)[O-])c1Nc1ncc(C(F)(F)F)cc1Cl`, the MIC was above 500 µg/mL.

For the molecule `O=[N+]([O-])c1cc(C(F)(F)F)c(Oc2ccc(C(F)(F)F)cc2Cl)c([N+](=O)[O-])c1Nc1ncc(C(F)(F)F)cc1Cl`, the MIC was above 500 µg/mL.

Regarding `CSc1c(C(F)(F)F)cc([N+](=O)[O-])c(Nc2ncc(C(F)(F)F)cc2Cl)c1[N+](=O)[O-]`, the MIC was above 500 µg/mL.

In the case of `FC(F)(F)c1cnc(Nc2cc(Cl)c(Oc3ncc(C(F)(F)F)cc3Cl)c(Cl)c2)c(Cl)c1`, the MIC was above 500 µg/mL.

On to `CS(=O)(=O)c1cc([N+](=O)[O-])c(Nc2ncc(C(F)(F)F)cc2Cl)c([N+](=O)[O-])c1Cl`, for which the minimum inhibitory concentration (MIC) is above 500 µg/mL.

Turning to `CCN(CC)S(=O)(=O)c1cc([N+](=O)[O-])c(Nc2ncc(C(F)(F)F)cc2Cl)c([N+](=O)[O-])c1Cl`, the MIC is above 500 µg/mL.

As to `O=[N+]([O-])c1cc(C(F)(F)F)cc([N+](=O)[O-])c1Nc1ncc(C(F)(F)F)cc1Cl`, the MIC was above 500 µg/mL.

For `O=[N+]([O-])c1cc(C(F)(F)F)c(F)c([N+](=O)[O-])c1Nc1ncc(C(F)(F)F)cc1Cl`, the MIC is above 500 µg/mL.

`O=[N+]([O-])c1cc(C(F)(F)F)c(Br)c([N+](=O)[O-])c1Nc1ncc(C(F)(F)F)cc1Cl`: the minimal inhibitory concentration (MIC) was below 16 µg/mL.

`O=[N+]([O-])c1cc(C(F)(F)F)c(I)c([N+](=O)[O-])c1Nc1ncc(C(F)(F)F)cc1Cl`: the MIC is above 500 µg/mL.

As to `Nc1c(C(F)(F)F)cc([N+](=O)[O-])c(Nc2ncc(C(F)(F)F)cc2Cl)c1[N+](=O)[O-]`, the MIC is above 500 µg/mL.

With `N#CNc1c(C(F)(F)F)cc([N+](=O)[O-])c(Nc2ncc(C(F)(F)F)cc2Cl)c1[N+](=O)[O-]`, the MIC was above 500 µg/mL.

On to `O=[N+]([O-])c1cc(C(F)(F)F)c(O)c([N+](=O)[O-])c1Nc1ncc(C(F)(F)F)cc1Cl`, for which the MIC was above 500 µg/mL.

On to `COc1c(C(F)(F)F)cc([N+](=O)[O-])c(Nc2ncc(C(F)(F)F)cc2Cl)c1[N+](=O)[O-]`, for which the MIC is above 500 µg/mL.

Turning to `Cc1cc([N+](=O)[O-])c(Nc2ncc(C(F)(F)F)cc2Cl)c([N+](=O)[O-])c1Cl`, the MIC was above 500 µg/mL.

For the molecule `Cc1c(Cl)c([N+](=O)[O-])c(Nc2ncc(C(F)(F)F)cc2Cl)c([N+](=O)[O-])c1Cl`, the MIC is above 500 µg/mL.

On to `O=[N+]([O-])c1cc(C(F)(F)F)c(Cl)cc1Nc1ncc(C(F)(F)F)cc1Cl`, for which the minimal inhibitory concentration (MIC) was above 500 µg/mL.

Take `Nc1cc(C(F)(F)F)c(Cl)c(N)c1Nc1ncc(C(F)(F)F)cc1Cl`: the MIC was above 500 µg/mL.

For the molecule `Nc1c(Cl)c(C(F)(F)F)cc([N+](=O)[O-])c1Nc1ncc(C(F)(F)F)cc1Cl`, the MIC was above 500 µg/mL.

`O=[N+]([O-])c1c(Cl)c(C(F)(F)F)c(Cl)c([N+](=O)[O-])c1Nc1ncc(C(F)(F)F)cc1Cl`: the MIC worked out at 250 µg/mL (≈ 500 µM).

With `N#Cc1cc([N+](=O)[O-])c(Nc2ncc(C(F)(F)F)cc2Cl)c([N+](=O)[O-])c1Cl`, the MIC was above 500 µg/mL.

As for `COC(=O)c1cc([N+](=O)[O-])c(Nc2ncc(C(F)(F)F)cc2Cl)c([N+](=O)[O-])c1Cl`, the MIC was above 500 µg/mL.

In the case of `O=[N+]([O-])c1c(Cl)cc(Nc2ncc(C(F)(F)F)cc2Cl)c([N+](=O)[O-])c1Cl`, the MIC was above 500 µg/mL.

`O=[N+]([O-])c1cc(C(F)(F)F)c(Nc2ncc(C(F)(F)F)cc2Cl)c([N+](=O)[O-])c1Cl`: the MIC is below 16 µg/mL.

Take `CCCSP(=O)(OCC)Oc1c(Cl)cc(Nc2ncc(C(F)(F)F)cc2Cl)cc1Cl` (stereo unspecified): the MIC was above 500 µg/mL.

As to `CCOP(=O)(Oc1c(Cl)cc(Nc2ncc(C(F)(F)F)cc2Cl)cc1Cl)SC(C)CC` (stereo unspecified), the MIC is above 500 µg/mL.

For `O=[N+]([O-])c1cc(C(F)(F)F)c(Cl)c([N+](=O)[O-])c1Nc1ncc(Cl)cc1Br`, the MIC is above 500 µg/mL.

As to `O=[N+]([O-])c1cc(C(F)(F)F)c(Cl)c([N+](=O)[O-])c1Nc1ncc(Br)cc1Br`, the MIC is above 500 µg/mL.

In the case of `O=[N+]([O-])c1cc(C(F)(F)F)c(Cl)c([N+](=O)[O-])c1Nc1ncc(C(F)(F)F)cc1Br`, the MIC is below 16 µg/mL.

Turning to `O=[N+]([O-])c1cc(C(F)(F)F)c(Cl)c([N+](=O)[O-])c1Nc1ncccc1C(F)(F)F`, the MIC is above 500 µg/mL.

Consider `O=[N+]([O-])c1cc(C(F)(F)F)c(Cl)c([N+](=O)[O-])c1Nc1ncc(Cl)cc1C(F)(F)F`, for which the MIC came out at 16 µg/mL (≈ 34.4 µM).

As to `O=[N+]([O-])c1cc(C(F)(F)F)c(Cl)c([N+](=O)[O-])c1Nc1ncc(Br)cc1C(F)(F)F`, the minimal inhibitory concentration (MIC) was found to be 63 µg/mL (≈ 124 µM).

For `O=[N+]([O-])c1cc(C(F)(F)F)c(Cl)c([N+](=O)[O-])c1Nc1ncc(C(F)(F)F)cc1C(F)(F)F`, the MIC is below 16 µg/mL.

With `FC(F)(F)c1cnc(Nc2cc(Cl)cc(Cl)c2)c(Cl)c1`, the MIC was above 500 µg/mL.

With `O=[N+]([O-])c1c(Cl)cc(Cl)c([N+](=O)[O-])c1Nc1ncc(C(F)(F)F)cc1Cl`, the MIC is above 500 µg/mL.

As to `Fc1c(Cl)cc(Nc2ncc(C(F)(F)F)cc2Cl)c(F)c1Cl`, the MIC was above 500 µg/mL.

On to `N#Cc1c(Cl)c(Cl)c(Cl)c(C#N)c1Nc1ncc(C(F)(F)F)cc1Cl`, for which the MIC was above 500 µg/mL.

For `O=[N+]([O-])c1cc(C(F)(F)F)c(Cl)c([N+](=O)[O-])c1Nc1ccc(C(F)(F)F)cn1`, the MIC was above 500 µg/mL.

Take `O=[N+]([O-])c1cc(C(F)(F)F)c(Cl)c([N+](=O)[O-])c1Nc1cc(C(F)(F)F)c(Cl)cn1`: the MIC was determined as 16 µg/mL (≈ 34.4 µM).

`O=[N+]([O-])c1cc(C(F)(F)F)c(Cl)c([N+](=O)[O-])c1Nc1nc(C(F)(F)F)c(Cl)cc1Cl`: the minimum inhibitory concentration (MIC) was below 16 µg/mL.

As to `O=[N+]([O-])c1cc(C(F)(F)F)c(Cl)c([N+](=O)[O-])c1Nc1ncc(Cl)cc1Cl`, the minimum inhibitory concentration (MIC) is above 500 µg/mL.

For `O=[N+]([O-])c1cc(C(F)(F)F)c(Cl)c([N+](=O)[O-])c1Nc1ncc(Br)cc1Cl`, the MIC was above 500 µg/mL.

With `O=[N+]([O-])c1cc(C(F)(F)F)c(Cl)c([N+](=O)[O-])c1Nc1nc(F)c(C(F)(F)F)cc1Cl`, the MIC was below 16 µg/mL.

In the case of `O=[N+]([O-])c1cc(C(F)(F)F)c(Cl)c([N+](=O)[O-])c1Nc1nc(Cl)c(C(F)(F)F)cc1Cl`, the minimal inhibitory concentration (MIC) is below 16 µg/mL.

Take `CN(C)c1nc(Nc2c([N+](=O)[O-])cc(C(F)(F)F)c(Cl)c2[N+](=O)[O-])c(Cl)cc1C(F)(F)F`: the MIC was above 500 µg/mL.

As to `CNc1nc(Nc2c([N+](=O)[O-])cc(C(F)(F)F)c(Cl)c2[N+](=O)[O-])c(Cl)cc1C(F)(F)F`, the MIC was above 500 µg/mL.

In the case of `N#Cc1cnc(Nc2c([N+](=O)[O-])cc(C(F)(F)F)c(Cl)c2[N+](=O)[O-])c(Cl)c1`, the MIC turned out to be 63 µg/mL (≈ 149 µM).

Consider `NC(=O)c1cnc(Nc2c([N+](=O)[O-])cc(C(F)(F)F)c(Cl)c2[N+](=O)[O-])c(Cl)c1`, for which the minimum inhibitory concentration (MIC) is above 500 µg/mL.

As to `CCOC(=O)c1cnc(Nc2c([N+](=O)[O-])cc(C(F)(F)F)c(Cl)c2[N+](=O)[O-])c(Cl)c1`, the MIC was above 500 µg/mL.

As to `COC(=O)c1cnc(Nc2c([N+](=O)[O-])cc(C(F)(F)F)c(Cl)c2[N+](=O)[O-])c(Cl)c1`, the minimum inhibitory concentration (MIC) was above 500 µg/mL.

Turning to `O=C(O)c1cnc(Nc2c([N+](=O)[O-])cc(C(F)(F)F)c(Cl)c2[N+](=O)[O-])c(Cl)c1`, the MIC is above 500 µg/mL.

For the molecule `Cc1c(Cl)cnc(Nc2c([N+](=O)[O-])cc(C(F)(F)F)c(Cl)c2[N+](=O)[O-])c1Cl`, the MIC was above 500 µg/mL.

Regarding `O=[N+]([O-])c1cc(C(F)(F)F)c(Cl)c([N+](=O)[O-])c1Nc1ncc(C(F)(F)F)cc1Cl` [FLUAZINAM], the MIC was below 16 µg/mL.
